Experimental data reported in patent US6384043B1, “Methods of alleviating pain sensations of the denuded eye with opioid analgesics” (priority 1993, dated 2002).
Structures can show the parent of a compound that is named as a salt. Where two headings read alike, the source gives them in different places.

Assays:
[1] = system: pain scores following knee surgery; settings: applied locally inside the joints following knee surgery; cited from earlier work
[2] = system: corneal epithelial cell regeneration in pigmented rabbits; assay: Toxicity test: corneal re-epithelialization (wound healing) after mechanical removal of epithelial cells; settings: for Animals with complete healing of the cornea / total animals per group: 2 drops at 4 hourly intervals for 6 days
Procedure: Healthy pigmented rabbits weighing about 1.5-2.2 kg were anesthetized and then corneal epithelial cells were scraped and removed using a blade under direct view of a microscope. The basal lamina was left intact while thorough de-epithelialization was performed and confirmed by staining the surface of the cornea with 1% fluorescein. […] Eyes in each group were instilled with two drops of the corresponding solution at 4 hourly intervals for 6 consecutive days. Wound healing (corneal re-epithelialization) was assessed on days 2, 3, 4, 5, 6, 7, and 8 following corneal abrasion using fluorescein staining with Fluor-I-Strip, and epithelial regeneration and migration were monitored by clinical examinations as well as wound surface area measurements.

[3] = system: corneal sensitivity of patients with corneal abrasion or after a refractive procedure; settings: 2 drops topical, morphine 0.5 mg/ml, mean ± SEM
Procedure: The following describes analgesic tests which were performed on patients following topical application of the prepared and previously described topical ophthalmic analgesic formulation. […] Five patients were selected to participate in this study. In all cases, three measurements were made in the following fashion: First, a baseline response (corneal sensitivity) was established by determining the response of the patient eye to a standard pain pressure using a Cochet Bonnet Aesthesiometer instrument and without applying any drug. Measurements were made by beginning with the nylon monofilament (0.12 mm diameter) fully extended. The tip was applied perpendicularly to the corneal surface and gently pressed until the fiber's first visible bending. […] The length was then recorded in units of mm. Second, a saline solution (2 drops) were instilled in the eye and at 10 and 20 minutes later the response of the patient's cornea to pain pressure was determined as described above. These repeated measurements served as a placebo effect for comparison purposes.
Again, an Aesthesiometer, based upon the principle of pressure transmitted axially by a nylon monofilament of known diameter but of variable length for a given bending stress, was applied to the corneal surface. […] The distance, in millimeters (mm) of the nylon monofilament is recorded and then converted to pressure in gram/square millimeter.

[4] = system: pupil of morphine-dependent subject; settings: applied topically to one eye of a morphine-dependent subject; cited from earlier work

**Q.** Which “Effect on pain scores” value [1] does the source give for `CN1CC[C@]23c4c5ccc(O)c4O[C@H]2[C@@H](O)C=C[C@H]3[C@H]1C5.O=S(=O)(O)O` [Morphine, morphine sulphate] here?
**A.** significantly reduced pain scores

**Q.** And the “Time to maximal effect” value [1]?
**A.** 3 to 6 h

**Q.** What about the “Animals with complete healing of the cornea / total animals per group” value ([2]; day 1) of the same compound?
**A.** 0/6

**Q.** And the “Animals with complete healing of the cornea / total animals per group” value ([2]; day 2)?
**A.** 0/6

**Q.** And the “Animals with complete healing of the cornea / total animals per group” value ([2]; day 3)?
**A.** 0/6

**Q.** What about the “Animals with complete healing of the cornea / total animals per group” value ([2]; day 4) of the same compound?
**A.** 1

**Q.** What about the “Animals with complete healing of the cornea / total animals per group” value ([2]; day 4, sulphate) of the same compound?
**A.** 1/6

**Q.** What about the “Animals with complete healing of the cornea / total animals per group” value ([2]; day 5, sulphate) of the same compound?
**A.** 3/6

**Q.** What about the “Animals with complete healing of the cornea / total animals per group” value ([2]; day 6) of the same compound?
**A.** 4/6

**Q.** What about the “Animals with complete healing of the cornea / total animals per group” value ([2]; day 7, sulphate) of the same compound?
**A.** 5/6

**Q.** And the “Animals with complete healing of the cornea / total animals per group” value ([2]; day 8)?
**A.** 5/6

**Q.** What about the “Corneal sensitivity expressed as pressure” value ([3]; 10 min after treatment) of the same compound?
**A.** 7.69 ± 2.16 grm/sq. mm

**Q.** What about the “Corneal sensitivity expressed as pressure” value ([3]; 20 min after treatment) of the same compound?
**A.** 9.84 ± 1.00 grm/sq. mm

**Q.** For `CCCOc1ccc(C(=O)OCCN(CC)CC)cc1N` [Alcaine, proparacaine HCl], which “Complete regeneration / wound healing by” value ([2]; pigmented, rabbit, in vivo) is on record?
**A.** ≤ 8 days

**Q.** What about the “Day on which eyes began to show epithelial regeneration” value ([2]; rabbit, in vivo) of the same compound?
**A.** third day

**Q.** And the “Effect of repeated topical application on corneal epithelial cell regeneration and migration” value ([2]; rabbit, in vivo)?
**A.** significantly prevented regeneration

**Q.** For `C=CCN1CC[C@]23c4c5ccc(O)c4O[C@H]2C(=O)CC[C@@]3(O)[C@H]1C5` [naloxone], which “Effect on pupil of the same eye” value [4] is on record?
**A.** pupillary dilation
